Assay results published in US20140155406A1, “4-IMIDAZOPYRIDAZIN-1-YL-BENZAMIDES AND 4-IMIDAZOTRIAZIN-1-YL-BENZAMIDES BTK INHIBITORS” (priority 2011, published 2014).

Tests used:
Lyn enzyme = biological target: T1, Lyn enzyme (Homo sapiens, UniProt P07948); assay: Lyn enzyme activity, IMAP fluorescence polarization assay; type: biochemical; conditions: 60 min pre-incubation, 2 μM ATP (Km)
T1 construct: purchased Millipore 14-510

Btk enzyme (His-Btk) = biological target: T2, Btk enzyme (His-Btk) (Homo sapiens, UniProt Q06187); assay: Btk enzyme activity, IMAP fluorescence polarization assay; type: biochemical; conditions: 60 min pre-incubation, 5 μM ATP (Km); bin bounds given in nM
T2 construct: His; purchased Millipore 14-552
From the text: Inhibition of kinase activity can be measured using the Immobilized Metal Assay for Phosphochemicals (IMAP) assay. IMAP is a homogeneous fluorescence polarization (FP) assay based on affinity capture of phosphorylated peptide substrates. IMAP uses fluorescein-labeled peptide substrates that, upon phosphorylation by a protein kinase, bind to so-called IMAP nanoparticles, which are derivatized with trivalent metal complexes. Binding causes a change in the rate of the molecular motion of the peptide, and results in an increase in the FP value observed for the fluorescein label attached to the substrate peptide (Gaudet et al. A homogeneous fluorescence polarization assay adaptable for a range of protein serine/threonine and tyrosine kinases. J. Biomol. Screen (2003) 8, 164-175).
Btk enzyme activity is measured using the IMAP (immobilized metal ion affinity-based fluorescence polarization) assay as outlined below.
Btk enzyme (His-Btk (Millipore catalog#14-552), is diluted to 0.4 U/mL in KR buffer (10 mM Tris-HCl, 10 mM MgCl2, 0.01% Tween-20, 0.05% NaN3, 1 mM DTT, 2 mM MnCl2, pH 7.2).
Serial dilution log 10 from 2 mM to 63.2 nM of test compounds are made in 100% DMSO. The dilutions in DMSO are then diluted 50-fold in KR-buffer. Final compound concentration range in the assay from 10 μM to 0.316 nM.
5 μL/well of test compound in KR buffer (final DMSO concentration in the assay is 1%) is mixed with 5 μl/well of 0.4 U/mL Btk enzyme (final concentration in the assay is 0.1 U/mL). Test compounds and Btk enzyme are pre-incubated 60 minutes at room temperature, before adding 5 μL/well of 200 nM Fluorescin labeled substrate peptide (Blk/Lyntide substrate, e.g. #R7188/#R7233, Molecular Devices) in KR-buffer. Final peptide substrate concentration in assay is 50 nM. The kinase assay is started by adding 5 μL/well of 20 μM ATP in KR-buffer (final ATP concentration is 5 μM ATP, Km ATP in Btk IMAP assay). Following incubation for 2 h at room temperature the enzyme reaction is stopped by adding 40 μL/well IMAP Progressive Binding Solution (according to suppliers (Molecular Devices) protocol using 75% 1× buffer A and 25% 1× buffer B with 1:600 Progressive Binding Solution). After 60 min incubation at room temperature in the dark the FP signal is read. Fluorescence at 535 nm is measured using parallel and perpendicular filters to determine differences in rotation due to binding of the phosphorylated substrate peptide to the beads. Values are calculated as percentage of the difference in readout (ΔmPi) of the controls with and without ATP. EC50 values are determined by curve fitting of the experimental results using Activity Base.

T1 sequence (P07948 whole entry): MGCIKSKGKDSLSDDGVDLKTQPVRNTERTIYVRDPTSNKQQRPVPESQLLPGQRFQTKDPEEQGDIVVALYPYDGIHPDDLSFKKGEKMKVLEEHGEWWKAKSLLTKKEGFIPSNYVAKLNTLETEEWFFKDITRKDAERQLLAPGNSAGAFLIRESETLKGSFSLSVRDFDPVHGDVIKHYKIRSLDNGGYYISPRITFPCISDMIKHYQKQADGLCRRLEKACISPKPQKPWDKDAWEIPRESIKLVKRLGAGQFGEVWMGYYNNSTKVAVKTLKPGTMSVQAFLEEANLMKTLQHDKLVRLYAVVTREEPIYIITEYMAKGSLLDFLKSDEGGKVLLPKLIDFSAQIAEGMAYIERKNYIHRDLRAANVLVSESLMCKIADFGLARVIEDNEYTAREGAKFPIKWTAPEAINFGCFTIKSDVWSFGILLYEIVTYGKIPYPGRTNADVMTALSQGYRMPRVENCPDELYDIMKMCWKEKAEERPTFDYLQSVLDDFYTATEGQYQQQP
T2 sequence (Q06187 whole entry): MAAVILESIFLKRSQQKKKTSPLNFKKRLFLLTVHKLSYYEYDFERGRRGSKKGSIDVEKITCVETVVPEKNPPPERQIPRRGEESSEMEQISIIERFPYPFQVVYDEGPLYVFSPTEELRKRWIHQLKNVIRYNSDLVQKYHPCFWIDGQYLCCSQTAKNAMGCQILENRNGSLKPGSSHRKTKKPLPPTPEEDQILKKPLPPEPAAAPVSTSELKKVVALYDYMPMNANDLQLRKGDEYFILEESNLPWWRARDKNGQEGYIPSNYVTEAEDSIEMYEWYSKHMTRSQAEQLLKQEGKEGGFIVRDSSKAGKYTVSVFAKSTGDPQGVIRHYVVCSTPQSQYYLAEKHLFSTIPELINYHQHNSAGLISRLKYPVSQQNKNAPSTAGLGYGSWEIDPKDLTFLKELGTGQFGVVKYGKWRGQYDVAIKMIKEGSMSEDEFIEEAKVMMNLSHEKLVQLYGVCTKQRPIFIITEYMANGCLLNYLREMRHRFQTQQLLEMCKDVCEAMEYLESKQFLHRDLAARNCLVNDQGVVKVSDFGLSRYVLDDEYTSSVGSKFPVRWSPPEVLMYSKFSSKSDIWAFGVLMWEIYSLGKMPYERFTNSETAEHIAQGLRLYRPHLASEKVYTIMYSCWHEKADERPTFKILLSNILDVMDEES

Row | Compound | EC50 (Lyn enzyme) | EC50 (Btk enzyme (His-Btk))
1 | CCCc1ccnc(NC(=O)c2ccc(-c3nc([C@H](C)NC(=O)/C=C/COC)n4ccnc(C)c34)cc2)c1 [Example 36, (S,E)-4-(3-(1-(4-methoxybut-2-enamido)ethyl)-8-methylimidazo[1,5-a]pyrazin-1-yl)-N-(4-propylpyridin-2-yl)benzamide] | ≥ 1000 nM | < 10 nM
2 | Cc1nccn2c([C@@H]3CCCCN3C(=O)/C=C/CN(C)C)nc(-c3ccc(C(=O)Nc4cc(C(F)(F)F)ccn4)cc3)c12 [Example 37, (S,E)-4-(3-(1-(4-(dimethylamino)but-2-enoyl)piperidin-2-yl)-8-methylimidazo[1,5-a]pyrazin-1-yl)-N-(4-(trifluoromethyl)pyridin-2-yl)benzamide] | ≥ 1000 nM | < 10 nM

More lines, now with the values ahead:

Row | EC50 (Lyn enzyme) | EC50 (Btk enzyme (His-Btk)) | Compound
3 | ≥ 1000 nM | < 10 nM | CC#CC(=O)N1CCCC[C@H]1c1nc(-c2ccc(C(=O)Nc3cc(C(F)(F)F)ccn3)cc2)c2c(C)nccn12 [Example 29, (S)-4-(3-(1-but-2-ynoylpiperidin-2-yl)-8-methylimidazo[1,5-a]pyrazin-1-yl)-N-(4-(trifluoromethyl)pyridin-2-yl)benzamide]
4 | ≥ 1000 nM | < 10 nM | CCCc1ccnc(NC(=O)c2ccc(-c3nc([C@@H]4CCCCN4C(=O)/C=C/CN4CCCC4)n4ccnc(C)c34)cc2)c1 [Example 35, (S,E)-4-(8-methyl-3-(1-(4-(pyrrolidin-1-yl)but-2-enoyl)piperidin-2-yl)imidazo[1,5-a]pyrazin-1-yl)-N-(4-propylpyridin-2-yl)benzamide]
5 | ≥ 1000 nM | < 10 nM | CC#CC(=O)N[C@@H](C)c1nc(-c2ccc(C(=O)Nc3cc(CCC)ccn3)cc2)c2c(C)nccn12 [Example 38, (S)-4-(3-(1-but-2-ynamidoethyl)-8-methylimidazo[1,5-a]pyrazin-1-yl)-N-(4-propylpyridin-2-yl)benzamide]
